# Measurements: paper PMC8869731, “KasQ an Epimerase Primes the Biosynthesis of Aminoglycoside Antibiotic Kasugamycin and KasF/H Acetyltransferases Inactivate Its Activity” (Biomedicines, 2022)
# “Also recorded” adds a separate entry of the source. Like-named read-outs stand apart in the source and are kept apart here.
# Key:
# KasH = KasH (Streptomyces kasugaensis, UniProt A0A0K1H2T0); assay: ITC of KasH versus ligands; conditions: KasH; for n: ITC binding stoichiometry; for n / Kd: 50 mM MOPS pH 7.5, 100 mM NaCl; for ∆G / ∆H / ∆S / Kd: ITC;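 for all read-outs here: isothermal titration calorimetry at 25 °C, 0.1 mM KasH in the cell titrated with 1 mM ligand over 18 injections, data fit with a one-site binding model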
# KasH, sequence (A0A0K1H2T0 entry or part of it): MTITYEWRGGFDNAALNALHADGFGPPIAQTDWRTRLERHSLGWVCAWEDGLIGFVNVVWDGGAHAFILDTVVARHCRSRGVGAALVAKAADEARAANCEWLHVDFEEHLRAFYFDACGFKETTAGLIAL
# Protocol: (§3) ITC analyses were carried out at 25 °C using an ITC200 microcalorimeter (MicroCal Inc., Northampton, MA, USA). […] The titration experiment contains 18 injections (2 μL for a duration of 4 s) and each injection was separated by 120 s. The distilled water was filled in the reference cell throughout all titrations. The cell stirring speed was 1000 rpm. The collected raw data were processed in Origin 7.0 (provided by MicroCal) by a non-linear least square method to a single-site binding model.
# KasQ [1] = target: T1, KasQ (Streptomyces kasugaensis, UniProt A0A0K1H2R6); assay: Isothermal titration calorimetry (ITC) of KasQ wild type versus substrates; type: binding; conditions: KasQ wild type; for ∆G / ∆H / ∆S / Kd: ITC;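 for all read-outs here: titration of 1 mM substrate into 0.1 mM KasQ, 18 injections spaced 120 s, data fitted to a single-site binding model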
# T1 sequence (A0A0K1H2R6 entry or part of it): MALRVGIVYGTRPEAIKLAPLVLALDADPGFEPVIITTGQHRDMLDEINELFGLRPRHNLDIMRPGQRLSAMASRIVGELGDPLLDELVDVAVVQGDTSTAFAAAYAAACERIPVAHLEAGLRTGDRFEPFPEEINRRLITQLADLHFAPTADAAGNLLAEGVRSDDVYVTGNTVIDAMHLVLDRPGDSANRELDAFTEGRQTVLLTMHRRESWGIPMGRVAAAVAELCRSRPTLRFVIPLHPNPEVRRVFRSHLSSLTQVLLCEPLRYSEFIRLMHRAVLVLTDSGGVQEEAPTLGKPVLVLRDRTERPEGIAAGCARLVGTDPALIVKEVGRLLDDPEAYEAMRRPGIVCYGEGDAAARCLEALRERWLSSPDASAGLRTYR
# Protocol: as §3
# KasQ E308A = KasQ E308A (Streptomyces kasugaensis, UniProt A0A0K1H2R6, E308A); assay: biochemical; type: binding
# KasQ E308A, sequence (A0A0K1H2R6 entry or part of it E308A): as the sequence (A0A0K1H2R6 entry or part of it) above
# Protocol: (§1) Site-directed mutagenesis was performed using QuikChange (Stratagene), following the manufacturer’s protocol. The wild-type KasQ plasmid (BCRC12349) was used as the template for the single mutation. All mutations were confirmed by DNA sequencing. KasQ mutants were expressed and purified with the same protocol as used for the wild-type protein.
# (§2) The cell stirring speed was 1000 rpm.
# KasQ Q95A = KasQ Q95A (Streptomyces kasugaensis, UniProt A0A0K1H2R6, Q95A); assay: biochemical; type: binding; conditions: for n: ITC binding stoichiometry; for n / ∆G / ∆H / ∆S: KasQ mutant Q95A; for ∆G / ∆H / ∆S: ITC
# KasQ Q95A, sequence (A0A0K1H2R6 entry or part of it Q95A): as the sequence (A0A0K1H2R6 entry or part of it) above, with Q95A counted along it
# Protocol: as §1, §2
# KasQ Q95E = KasQ Q95E (Streptomyces kasugaensis, UniProt A0A0K1H2R6, Q95E); assay: biochemical; type: binding; conditions: for n: ITC binding stoichiometry; for n / ∆G / ∆H / ∆S: KasQ mutant Q95E; for ∆G / ∆H / ∆S: ITC
# KasQ Q95E, sequence (A0A0K1H2R6 entry or part of it Q95E): as the sequence (A0A0K1H2R6 entry or part of it) above, with Q95E counted along it
# Protocol: as §1, §2
# KasQ E308Q = KasQ E308Q (Streptomyces kasugaensis, UniProt A0A0K1H2R6, E308Q); type: binding; conditions: ITC; KasQ mutant E308Q
# KasQ E308Q, sequence (A0A0K1H2R6 entry or part of it E308Q): as the sequence (A0A0K1H2R6 entry or part of it) above
# Protocol: as §1, §2
# KasQ [2] = target: T1, KasQ; assay: HPLC kinetic analysis of KasQ epimerization; type: biochemical; conditions: KasQ_WT with UDP-GlcNAc and 1 mM MgCl2, 25 mM Tris pH 8.0, 37 °C
# Protocol: The reaction mixture was mixed by vortex and incubated at 37 °C. Reactions were stopped at six different time points (10, 30, 60, 120, 180, and 240 min) by adding equal volumes of chloroform. Precipitation was removed by centrifugation and analyzed by HPLC-LTQ-MS using HPLC method B as described above. […] The Michaelis–Menten curve of the KasQ activity was derived from the integrated peak area of each reaction.
# KasF = assay: HPLC acetylation assay with KasF and AcCoA; type: biochemical, Streptomyces kasugaensis; conditions: 1 mM substrate, 0.5 mM AcCoA, 37 °C, 12 h
# [3] = test system: E. coli BL21 (DE3) cells with/without the kasH or kasF gene; assay: Disc diffusion assay (resistance assay); type: cell-based; conditions: E. coli BL21 with/without the kasH or kasF gene, all conditions
# Protocol: KSM susceptibility and production were confirmed by disc diffusion assay. An E. coli culture was grown at 37 °C overnight and spread on an LB agar plate (pH 7.0). About 5 µL of extracted samples from Streptomyces lividans TK64 (from days 2–5) were loaded onto the paper disc. The disc was placed onto the surface of an LB agar plate and incubated at 37 °C overnight to visualize the zone of inhibition (ZOI).
# For the KSM resistant assay, BL21 cells with/without the kasH or kasF gene were individually expressed and seeded on LB agar plates (pH 7.0). About 5 µL of different aminoglycoside antibiotics (amikacin, gentamicin, sisomicin, streptothricin-F, or tobramycin) were loaded onto each paper disc and placed on the surface of the LB plates. The plates were incubated 37 °C overnight to visualize the appearance of the zone of inhibition (ZOI). Note: this is a standard protocol for evaluating the effectiveness of common antibiotics, including aminoglycosides; there is no apparent impact concerning the structural integrity or biological deterioration of the selected aminoglycosides at pH 7.0 during the examining course.
# [4] = target: KasQ (Streptomyces kasugaensis); assay: not stated; oligomeric state of the purified protein in solution (Figure S3: protein overexpression and purification); the method is not named in the text shown
# [5] = 25 °C, 50 mM HEPES pH 8.0, 100 mM NaCl
compound,measurement,setting,value
CC(=O)SCCNC(=O)CCNC(=O)[C@H](O)C(C)(C)COP(=O)(O)OP(=O)(O)OC[C@H]1O[C@@H](n2cnc3c(N)ncnc32)[C@H](O)[C@@H]1OP(=O)(O)O [AcCoA],n,KasH,1.3 ± 0.4
same,∆G,KasH,-5.240 ± 8.196 kcal/mol
same,∆H,KasH,-14.19 ± 8.196 kcal/mol
same,∆S,KasH,-30.02 cal mol-1 K-1
same,Kd,KasH,161 µM
"CC(=O)CC(=O)SCCNC(=O)CCNC(=O)[C@H](O)C(C)(C)COP(=O)(O)OP(=O)(O)OC[C@H]1O[C@@H](n2cnc3c(N)ncnc32)[C@H](O)[C@@H]1OP(=O)(O)O [Acetoacetyl-CoA, acetoacetyl-CoA]",n,KasH,0.5 ± 0.1
same,∆G,KasH,-5.469 ± 2.477 kcal/mol
same,∆H,KasH,-6.149 ± 2.477 kcal/mol
same,∆S,KasH,-2.28 cal mol-1 K-1
same,Kd,KasH,98 µM
CC(C)(COP(=O)(O)OP(=O)(O)OC[C@H]1O[C@@H](n2cnc3c(N)ncnc32)[C@H](O)[C@@H]1OP(=O)(O)O)[C@@H](O)C(=O)NCCC(=O)NCCS [CoA],n,KasH,0.6 ± 0.0
same,∆G,KasH,-5.478 ± 1.342 kcal/mol
same,∆H,KasH,-7.350 ± 1.342 kcal/mol
same,∆S,KasH,-6.28 cal mol-1 K-1
same,Kd,KasH,96.1 µM
"CC(C)CC(=O)SCCNC(=O)CCNC(=O)[C@H](O)C(C)(C)COP(=O)(O)OP(=O)(O)OC[C@H]1O[C@@H](n2cnc3c(N)ncnc32)[C@H](O)[C@@H]1OP(=O)(O)O [Isovaleryl-CoA, isovaleryl-CoA]",n,KasH,1.0 ± 0.7
same,∆G,KasH,-5.048 ± 3.166 kcal/mol
same,∆H,KasH,-3.116 ± 3.166 kcal/mol
same,∆S,KasH,6.48 cal mol-1 K-1
same,Kd,KasH,199 µM
"CCC(=O)SCCNC(=O)CCNC(=O)[C@H](O)C(C)(C)COP(=O)(O)OP(=O)(O)OC[C@H]1O[C@@H](n2cnc3c(N)ncnc32)[C@H](O)[C@@H]1OP(=O)(O)O [Propionyl-CoA, propionyl-CoA]",n,KasH,0.5 ± 0.0
same,∆G,KasH,-6.081 ± 0.3918 kcal/mol
same,∆H,KasH,-7.351 ± 0.3918 kcal/mol
same,∆S,KasH,-4.26 cal mol-1 K-1
same,Kd,KasH,35 µM
O=C(O)[C@H]1O[C@H](OP(=O)(O)OP(=O)(O)OC[C@H]2O[C@@H](n3ccc(=O)[nH]c3=O)[C@H](O)[C@@H]2O)[C@H](O)[C@@H](O)[C@@H]1O [UDP-GlcA],n,"KasQ [1]; ITC binding stoichiometry, 25 °C, 50 mM HEPES pH 8.0, 100 mM NaCl",1.5 ± 0.2
same,∆G,KasQ [1],-5.61 ± 0.5751 kcal/mol
same,∆H,KasQ [1],-1.376 ± 0.5751 kcal/mol
same,∆S,KasQ [1],14.2 cal mol^−1 K^−1
same,Kd,"KasQ [1]; 25 °C, 50 mM HEPES pH 8.0, 100 mM NaCl, read-out: Kd",76.3 ± 15.2 µM
same,Kd,KasQ E308A,106 µM
same,n,"KasQ E308A; ITC binding stoichiometry, KasQ mutant E308A",1.1 ± 0.7
same,∆G,"KasQ E308A; ITC, KasQ mutant E308A",-5.421 ± 3.692 kcal/mol
same,∆H,"KasQ E308A; ITC, KasQ mutant E308A",-3.194 ± 3.692 kcal/mol
same,∆S,"KasQ E308A; ITC, KasQ mutant E308A",7.47 cal mol-1 K-1
same,Kd,KasQ Q95A,44.4 µM
same,n,KasQ Q95A,1.7 ± 0.0
same,∆G,KasQ Q95A,-5.922 ± 0.0847 kcal/mol
same,∆H,KasQ Q95A,-0.6748 ± 0.0847 kcal/mol
same,∆S,KasQ Q95A,17.6 cal mol-1 K-1
same,Kd,KasQ Q95E,11.8 µM
same,n,KasQ Q95E,2.1 ± 0.1
same,∆G,KasQ Q95E,-7.15 ± 0.0195 kcal/mol
same,∆H,KasQ Q95E,-0.4413 ± 0.0195 kcal/mol
same,∆S,KasQ Q95E,22.5 cal mol-1 K-1
"CC(=O)NC1C(OP(=O)(O)OP(=O)(O)OCC2OC(n3ccc(=O)[nH]c3=O)C(O)C2O)OC(CO)C(O)C1O (stereo not drawn) [UDP-GlcNAc 1, UDP-N-acetyl-glucosamine]",∆G,KasQ [1],NBD
same,∆H,KasQ [1],NBD
same,∆S,KasQ [1],NBD
same,Kd,KasQ [1]; [5],NBD
same,Kd,"KasQ E308A; ITC, KasQ mutant E308A",NBD
same,∆G,"KasQ E308A; ITC, KasQ mutant E308A",NBD
same,∆H,"KasQ E308A; ITC, KasQ mutant E308A",NBD
same,∆S,"KasQ E308A; ITC, KasQ mutant E308A",NBD
same,Kd,KasQ Q95A,45.2 µM
same,n,KasQ Q95A,1.6 ± 0.1
same,∆G,KasQ Q95A,-5.939 ± 0.1764 kcal/mol
same,∆H,KasQ Q95A,-0.7212 ± 0.1764 kcal/mol
same,∆S,KasQ Q95A,17.5 cal mol-1 K-1
same,Kd,KasQ Q95E,14.2 µM
same,n,KasQ Q95E,0.7 ± 0.0
same,∆G,KasQ Q95E,-6.607 ± 0.0679 kcal/mol
same,∆H,KasQ Q95E,-0.6141 ± 0.0679 kcal/mol
same,∆S,KasQ Q95E,20.1 cal mol-1 K-1
same,Kd,KasQ E308Q,NBD
same,∆G,KasQ E308Q,NBD
same,∆H,KasQ E308Q,NBD
same,∆S,KasQ E308Q,NBD
same,kcat,KasQ [2]; listed as UDP-GlcNAC,1.33 (± 0.24) s^−1
same,kcat,KasQ [2]; listed as UDP-GlcNAc,1.33 s⁻¹
NC1C(OP(=O)(O)OP(=O)(O)OCC2OC(n3ccc(=O)[nH]c3=O)C(O)C2O)OC(CO)C(O)C1O (stereo not drawn) [UDP-GlcNH2],∆G,KasQ [1],NBD
same,∆H,KasQ [1],NBD
same,∆S,KasQ [1],NBD
same,Kd,KasQ [1]; [5],"Neither UDP-GlcNH2 that was enzymatically synthesized using the published procedure [38] nor AMP, ADP, ATP, GMP, GDP, or GTP shows detectable binding affinity and NBD"
same,acetylation by KasF,KasF,not subject to acetylation of KasF; also recorded: could not observe the formation of UDP-GlcNAc
NCC[C@H](O)C(=O)N[C@@H]1C[C@H](N)[C@@H](O[C@H]2O[C@H](CN)[C@@H](O)[C@H](O)[C@H]2O)[C@H](O)[C@H]1O[C@H]1O[C@H](CO)[C@@H](O)[C@H](N)[C@H]1O [amikacin],zone of inhibition (ZOI),[3],appearance of ZOI in all conditions
CNC(C)C1CCC(N)C(OC2C(N)CC(N)C(OC3OCC(C)(O)C(NC)C3O)C2O)O1 (stereo not drawn) [gentamicin],zone of inhibition (ZOI),[3],appearance of ZOI in all conditions
NC[C@H]1O[C@H](O[C@H]2[C@H](O)[C@@H](O[C@H]3O[C@H](CO)[C@@H](O)[C@H](N)[C@H]3O)[C@H](N)C[C@@H]2N)[C@H](N)[C@@H](O)[C@@H]1O [kanamycin B],zone of inhibition (ZOI),[3],appearance of ZOI in all conditions
CN[C@@H]1[C@@H](O)[C@@H](O[C@@H]2[C@@H](O)[C@H](O[C@H]3OC(CN)=CC[C@H]3N)[C@@H](N)C[C@H]2N)OC[C@]1(C)O [sisomicin],zone of inhibition (ZOI),[3],appearance of ZOI in all conditions
NCCC[C@H](N)CC(=O)N[C@@H]1[C@H](O)[C@@H](OC(N)=O)[C@@H](CO)O[C@H]1NC1=N[C@@H]2C(=O)NC[C@@H](O)[C@H]2N1 [streptothricin-F],zone of inhibition (ZOI),[3],appearance of ZOI in all conditions
NC[C@H]1O[C@H](O[C@H]2[C@H](O)[C@@H](O[C@H]3O[C@H](CO)[C@@H](O)[C@H](N)[C@H]3O)[C@H](N)C[C@@H]2N)[C@H](N)C[C@@H]1O [tobramycin],zone of inhibition (ZOI),[3],appearance of ZOI in all conditions
KasQ (enzyme),stoichiometry N,[4],2
